{"source": "paper PMC11861906", "about": "“Structural basis for lipid-mediated activation of G protein-coupled receptor GPR55” (Nature Communications, 2025)", "assay_type_in_all_cases": "cell-based", "key": {"wt GPR55 (Gα13)": {"biological_target": "wt GPR55 (Gα13) (Homo sapiens, UniProt Q9Y2T6)", "experiment": "BRET² G protein dissociation assay, wt GPR55 with Gα13", "conditions": "wt GPR55, Gα13", "description": "(§1) To validate the functionality of the GPR55 cryo-EM construct, we conducted bioluminescence resonance energy transfer 2 (BRET²)-based G protein dissociation assays[46],[47] using an engineered heterotrimeric G13 protein. The N-terminal GFP fusion of the receptor was additionally modified with a G67A mutation to disrupt fluorescence properties. We employed human embryonic kidney (HEK) cells overexpressing wt or mutant GPR55 together with Gβ3, Gγ9-GFP, and Gα13 tagged with Renilla luciferase 8 (Rluc8).\n(§2) G protein dissociation assays were performed according to the original protocols of the TRUPATH BRET² assay[47],[87] but with subtle modifications as previously described[61],[88],[89]. All reagents and cells were obtained from Thermo Fisher Scientific unless indicated otherwise. The coding sequences for the G protein biosensors[47] (Gα12-Rluc8, Gα13-Rluc8, wt Gβ3, and Gγ9-GFP), the wt GPR55, the construct used for cryo-EM (with GFP bearing a G67A mutation to disrupt fluorescence properties[48] for BRET² assays), GPR55 binding pocket mutants (G152^4.56F, G152^4.56W, N171^ECL2Q, N171^ECL2A, T176^5.33A, R253^6.62A), and the wt TBXA2R were codon-optimized for Homo sapiens, gene-synthesized, and sub-cloned into pcDNA^TM3.1(+) between NheI and HindIII restriction sites by GeneArt (Thermo Fisher Scientific). […] Freshly grown cells were washed with Dulbecco’s Balanced Salt Solution (DPBS, cat. #14200075) and detached using trypsin-ethylenediaminetetraacetic acid (trypsin-EDTA) (cat. #25300-062). Then, the cells were reconstituted to 500,000 cells per mL with fresh medium, and 1,000,000 cells were seeded into each well of a 6-well plate. After 3 h incubation at 37 °C and 5% CO2, adherent cells were transfected with 600 ng DNA (1:1:1:1 ratio of plasmid DNA for GPR55, wt Gβ3, Gγ9-GFP, and Gα12-Rluc8 or Gα13-Rluc8). Plasmid DNA was mixed with 1.5 µL Lipofectamine^TM 2000 (cat. #11668027) in Opti-MEM^TM medium (cat. #31985062) and incubated for 20 min. Then, the mixture was added to each well of the 6-well plate following 24 h incubation at 37 °C and 5% CO2. Transfected cells were washed with DPBS, detached using EDTA (Versene, cat. #15040066), and reconstituted into fresh medium at 500,000 cells mL^−1. From this suspension, 50,000 cells were seeded into each well of a white-bottom 96-well plate (Nunc^TM MicroWell^TM 96 wells, cat. #136101) following overnight incubation at 37 °C and 5% CO2. Then, the adherent cells were washed with assay medium [Hank’s balanced salt solution (HBSS, cat. #14065056) plus 20 mM HEPES pH 7.4 (cat. #15630056)] and finally reconstituted into 50 µL of the same medium. […] Methoxy e-Coelenterazine was used as luciferase substrate (Prolume Purple, NanoLight Technology, cat. #369), reconstituted at 1 mM in methanol and diluted to 37.5 µM with assay buffer (7.5 µM final assay concentration). The assay was started by the addition of 20 µL luciferase substrate to each well of the assay plate using a Multidrop^TM Combi reagent dispenser (Thermo Fisher Scientific), followed by 5 min incubation at room temperature. Then, 30 µL of agonist dilutions or DMSO control was added (final DMSO concentration 1.5%), followed by an additional 5 min incubation at room temperature. BRET² measurements were performed with a PHERAstar® FSX microplate reader (BMG LABTECH) using a BRET² filter (donor emission 370–450 nm, acceptor emission 500–530 nm) at the maximum fluorescence gain of 3600. BRET² ratios were calculated by dividing GFP emission signals from Rluc8 emission counts. Buffer-DMSO controls were subtracted from each data point to calculate ΔBRET² ratios."}, "[1]": {"biological_target": "GPR55 cryo-EM construct (Gα13) (Homo sapiens, UniProt Q9Y2T6)", "experiment": "BRET² G protein dissociation assay, GPR55 cryo-EM construct (GFP G67A) with Gα13", "conditions": "Cryo-EM-G67A-G13", "description": "as §1, §2"}, "[2]": {"biological_target": "GPR55 mutant N171Q (Gα13) (Homo sapiens, UniProt Q9Y2T6, N171Q)", "experiment": "BRET² G protein dissociation assay, GPR55 N171Q with Gα13", "description": "as §1, §2"}, "[3]": {"biological_target": "GPR55 mutant N171A (Gα13) (Homo sapiens, UniProt Q9Y2T6, N171A)", "experiment": "BRET² G protein dissociation assay, GPR55 N171A with Gα13", "description": "as §1, §2"}, "[4]": {"biological_target": "GPR55 mutant G152F (Gα13) (Homo sapiens, UniProt Q9Y2T6, G152F)", "experiment": "BRET² G protein dissociation assay, GPR55 G152F with Gα13", "description": "as §1, §2"}}}
{"molecule": "CCCCC[C@H](O)/C=C/[C@@H]1[C@@H](C/C=C\\CCCC(=O)O)[C@H]2CO[C@@H]1C2", "note": "[U-46619]", "values": [{"measurement": "G protein activation at GPR55-transfected cells (in words)", "setting": "wt GPR55 (Gα13)", "result": "inactive"}, {"measurement": "BRET2 response, Mean (plotted, Fig. S4)", "setting": "[1]; concentration 10 pM", "result": 0.00025}, {"measurement": "BRET2 response, Mean (plotted, Fig. S4)", "setting": "[1]; concentration 30 pM", "result": -0.003725}, {"measurement": "BRET2 response, Mean (plotted, Fig. S4)", "setting": "[1]; concentration 100 pM", "result": -0.000225}, {"measurement": "BRET2 response, Mean (plotted, Fig. S4)", "setting": "[1]; concentration 300 pM", "result": 0.0002}, {"measurement": "BRET2 response, Mean (plotted, Fig. S4)", "setting": "[1]; concentration 1e-9 M", "result": "-7.5e-5"}, {"measurement": "BRET2 response, Mean (plotted, Fig. S4)", "setting": "[1]; concentration 3e-9 M", "result": 0.0017}, {"measurement": "BRET2 response, Mean (plotted, Fig. S4)", "setting": "[1]; concentration 1e-8 M", "result": -0.0133}, {"measurement": "BRET2 response, Mean (plotted, Fig. S4)", "setting": "[1]; concentration 3e-8 M", "result": 0.000825}, {"measurement": "BRET2 response, Mean (plotted, Fig. S4)", "setting": "[1]; concentration 1e-7 M", "result": 0.0026}, {"measurement": "BRET2 response, Mean (plotted, Fig. S4)", "setting": "[1]; concentration 3e-7 M", "result": 0.003275}, {"measurement": "BRET2 response, Mean (plotted, Fig. S4)", "setting": "[1]; concentration 1e-6 M", "result": 0.00345}, {"measurement": "Mean (plotted) BRET² response, GPR55-N171Q-G13", "setting": "[2]; Concentration 10 pM", "result": 0.0013}, {"measurement": "Mean (plotted) BRET² response, GPR55-N171Q-G13", "setting": "[2]; Concentration 30 pM", "result": 0.00095}, {"measurement": "Mean (plotted) BRET² response, GPR55-N171Q-G13", "setting": "[2]; Concentration 100 pM", "result": 0.00685}, {"measurement": "Mean (plotted) BRET² response, GPR55-N171Q-G13", "setting": "[2]; Concentration 300 pM", "result": -0.0003198}, {"measurement": "Mean (plotted) BRET² response, GPR55-N171Q-G13", "setting": "[2]; Concentration 1e-9 M", "result": 0.003698}, {"measurement": "Mean (plotted) BRET² response, GPR55-N171Q-G13", "setting": "[2]; Concentration 3e-9 M", "result": 0.002984}, {"measurement": "Mean (plotted) BRET² response, GPR55-N171Q-G13", "setting": "[2]; Concentration 1e-8 M", "result": -0.00933}, {"measurement": "Mean (plotted) BRET² response, GPR55-N171Q-G13", "setting": "[2]; Concentration 3e-8 M", "result": 0.006599}, {"measurement": "Mean (plotted) BRET² response, GPR55-N171Q-G13", "setting": "[2]; Concentration 1e-7 M", "result": 0.005054}, {"measurement": "Mean (plotted) BRET² response, GPR55-N171Q-G13", "setting": "[2]; Concentration 3e-7 M", "result": 0.005811}, {"measurement": "Mean (plotted) BRET² response, GPR55-N171Q-G13", "setting": "[2]; Concentration 1e-6 M", "result": 0.005259}, {"measurement": "Mean (plotted) BRET² response, GPR55-N171Q-G13", "setting": "[2]; Concentration 3e-6 M", "result": -0.001778}, {"measurement": "Mean (plotted) BRET² response, GPR55-N171Q-G13", "setting": "[2]; Concentration 1e-5 M", "result": 0.001984}, {"measurement": "Mean (plotted) BRET² response, GPR55-N171Q-G13", "setting": "[2]; Concentration 3e-5 M", "result": -0.005542}, {"measurement": "Mean (plotted) BRET² response, GPR55-N171A-G13", "setting": "[3]; Concentration 10 pM", "result": 0.0067}, {"measurement": "Mean (plotted) BRET² response, GPR55-N171A-G13", "setting": "[3]; Concentration 30 pM", "result": 0.0022}, {"measurement": "Mean (plotted) BRET² response, GPR55-N171A-G13", "setting": "[3]; Concentration 100 pM", "result": 0.008}, {"measurement": "Mean (plotted) BRET² response, GPR55-N171A-G13", "setting": "[3]; Concentration 300 pM", "result": -0.003007}, {"measurement": "Mean (plotted) BRET² response, GPR55-N171A-G13", "setting": "[3]; Concentration 1e-9 M", "result": 0.003546}, {"measurement": "Mean (plotted) BRET² response, GPR55-N171A-G13", "setting": "[3]; Concentration 3e-9 M", "result": 0.00299}, {"measurement": "Mean (plotted) BRET² response, GPR55-N171A-G13", "setting": "[3]; Concentration 1e-8 M", "result": -0.006252}, {"measurement": "Mean (plotted) BRET² response, GPR55-N171A-G13", "setting": "[3]; Concentration 3e-8 M", "result": 0.007492}, {"measurement": "Mean (plotted) BRET² response, GPR55-N171A-G13", "setting": "[3]; Concentration 1e-7 M", "result": 0.005274}, {"measurement": "Mean (plotted) BRET² response, GPR55-N171A-G13", "setting": "[3]; Concentration 3e-7 M", "result": 0.006727}, {"measurement": "Mean (plotted) BRET² response, GPR55-N171A-G13", "setting": "[3]; Concentration 1e-6 M", "result": 0.007007}, {"measurement": "Mean (plotted) BRET² response, GPR55-N171A-G13", "setting": "[3]; Concentration 3e-6 M", "result": 0.002553}, {"measurement": "Mean (plotted) BRET² response, GPR55-N171A-G13", "setting": "[3]; Concentration 1e-5 M", "result": -0.002868}, {"measurement": "Mean (plotted) BRET² response, GPR55-N171A-G13", "setting": "[3]; Concentration 3e-5 M", "result": -0.004916}, {"measurement": "Mean (plotted) BRET² response, GPR55-G152F-G13", "setting": "[4]; Concentration 10 pM", "result": -0.003}, {"measurement": "Mean (plotted) BRET² response, GPR55-G152F-G13", "setting": "[4]; Concentration 30 pM", "result": 0.00205}, {"measurement": "Mean (plotted) BRET² response, GPR55-G152F-G13", "setting": "[4]; Concentration 100 pM", "result": 0.0008}, {"measurement": "Mean (plotted) BRET² response, GPR55-G152F-G13", "setting": "[4]; Concentration 300 pM", "result": -0.003135}, {"measurement": "Mean (plotted) BRET² response, GPR55-G152F-G13", "setting": "[4]; Concentration 1e-9 M", "result": 0.0004643}, {"measurement": "Mean (plotted) BRET² response, GPR55-G152F-G13", "setting": "[4]; Concentration 3e-9 M", "result": -0.004129}, {"measurement": "Mean (plotted) BRET² response, GPR55-G152F-G13", "setting": "[4]; Concentration 1e-8 M", "result": -0.009075}, {"measurement": "Mean (plotted) BRET² response, GPR55-G152F-G13", "setting": "[4]; Concentration 3e-8 M", "result": -0.001052}, {"measurement": "Mean (plotted) BRET² response, GPR55-G152F-G13", "setting": "[4]; Concentration 1e-7 M", "result": -0.0003089}, {"measurement": "Mean (plotted) BRET² response, GPR55-G152F-G13", "setting": "[4]; Concentration 3e-7 M", "result": -0.001149}, {"measurement": "Mean (plotted) BRET² response, GPR55-G152F-G13", "setting": "[4]; Concentration 1e-6 M", "result": -0.0006267}, {"measurement": "Mean (plotted) BRET² response, GPR55-G152F-G13", "setting": "[4]; Concentration 3e-6 M", "result": -0.009104}, {"measurement": "Mean (plotted) BRET² response, GPR55-G152F-G13", "setting": "[4]; Concentration 1e-5 M", "result": -0.008346}, {"measurement": "Mean (plotted) BRET² response, GPR55-G152F-G13", "setting": "[4]; Concentration 3e-5 M", "result": -0.007499}]}
